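1) Cells in 96-well plates. 2) Compound, 48 h, 5 concentrations. 3) Linear interpolation between surrounding doses. 4) Unreached endpoint = highest concentration. Abbreviation: GI50, concentration required for 50% inhibition of growth.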 Calls of active or inactive are those of the source. Rule as the data show it: active = GI50 up to about 1.1 µM and inactive = higher.
Tests used:
Assay in all cases: NCI tumour cell line growth inhibition, 48 h
HCT-116 = system: HCT-116
K562 = system: K562
NCI-H522 = system: NCI-H522
786-0 = system: 786-0
MDA-MB-231 = system: MDA-MB-231
SK-MEL-28 = system: SK-MEL-28
NCI-H460 = system: NCI-H460
SF-268 = system: SF-268
M14 = system: M14
U-251 = system: U-251
ACHN = system: ACHN
LOX IMVI = system: LOX IMVI
A498 = system: A498
NCI/ADR-RES = system: NCI/ADR-RES
MDA-MB-435 = system: MDA-MB-435
KM12 = system: KM12
SR = system: SR
MOLT-4 = system: MOLT-4
HT-29 = system: HT-29
HOP-92 = system: HOP-92

| SMILES | GI50 (HCT-116) | GI50 (K562) | GI50 (NCI-H522) | GI50 (786-0) | GI50 (MDA-MB-231) | GI50 (SK-MEL-28) | GI50 (NCI-H460) | GI50 (SF-268) | GI50 (M14) | GI50 (U-251) | GI50 (ACHN) | GI50 (LOX IMVI) | GI50 (A498) | GI50 (NCI/ADR-RES) | GI50 (MDA-MB-435) | GI50 (KM12) | GI50 (SR) | GI50 (MOLT-4) | GI50 (HT-29) | GI50 (HOP-92) |
| --- | --- | --- | --- | --- | --- | --- | --- | --- | --- | --- | --- | --- | --- | --- | --- | --- | --- | --- | --- | --- |
| O=C1c2cc3c(cc2CC12Cc1cc4c(cc1C2=O)CCC4)CCC3 | > 100 µM (inactive) | > 100 µM (inactive) | > 100 µM (inactive) | > 100 µM (inactive) | > 100 µM (inactive) | > 100 µM (inactive) | > 100 µM (inactive) | > 100 µM (inactive) | 14.4 µM (inactive) | > 100 µM (inactive) | > 100 µM (inactive) | > 100 µM (inactive) | > 100 µM (inactive) | > 100 µM (inactive) | > 100 µM (inactive) | > 100 µM (inactive) | > 100 µM (inactive) | > 100 µM (inactive) | > 100 µM (inactive) | – |
| COC(=O)CCCC(=O)NC1=C(NCc2ccccc2)C(=O)c2ccccc2C1=O | 32.1 µM (inactive) | 45.6 µM (inactive) | 70.5 µM (inactive) | 63.8 µM (inactive) | 50.1 µM (inactive) | > 100 µM (inactive) | 52 µM (inactive) | > 100 µM (inactive) | 29.6 µM (inactive) | > 100 µM (inactive) | 73.8 µM (inactive) | 46.2 µM (inactive) | > 100 µM (inactive) | 27.3 µM (inactive) | 42.4 µM (inactive) | 53.7 µM (inactive) | 46.5 µM (inactive) | 34 µM (inactive) | – | – |
| O=C(c1ccccc1)n1[nH]c(=O)n(-c2ccc(Cl)cc2)c1=O | > 100 µM (inactive) | > 100 µM (inactive) | – | > 100 µM (inactive) | > 100 µM (inactive) | > 100 µM (inactive) | > 100 µM (inactive) | > 100 µM (inactive) | > 100 µM (inactive) | > 100 µM (inactive) | > 100 µM (inactive) | > 100 µM (inactive) | – | > 100 µM (inactive) | > 100 µM (inactive) | > 100 µM (inactive) | > 100 µM (inactive) | > 100 µM (inactive) | > 100 µM (inactive) | – |
| CCN(CC)c1ccc2cc(C(=O)Nc3ccccc3)c(=N)oc2c1 | > 100 µM (inactive) | > 100 µM (inactive) | – | > 100 µM (inactive) | > 100 µM (inactive) | > 100 µM (inactive) | > 100 µM (inactive) | > 100 µM (inactive) | > 100 µM (inactive) | > 100 µM (inactive) | > 100 µM (inactive) | > 100 µM (inactive) | – | > 100 µM (inactive) | > 100 µM (inactive) | > 100 µM (inactive) | > 100 µM (inactive) | > 100 µM (inactive) | > 100 µM (inactive) | > 100 µM (inactive) |
| Nc1nc(Cl)c(N)c(NCC2(CO)CCC(CCc3ccccc3)C2)n1 (stereo not drawn) | 12.2 µM (inactive) | 0.183 µM (active) | 10.4 µM (inactive) | 20.4 µM (inactive) | 17 µM (inactive) | 14.6 µM (inactive) | 12.6 µM (inactive) | 15.8 µM (inactive) | 13.1 µM (inactive) | 14.4 µM (inactive) | 18.7 µM (inactive) | 11.5 µM (inactive) | 14.6 µM (inactive) | > 39.5 µM (inactive) | 12.8 µM (inactive) | 13.4 µM (inactive) | – | 0.759 µM (active) | 13.3 µM (inactive) | 19.3 µM (inactive) |
| NC(Cc1ccc(B(O)O)cc1)C(=O)NC(CO)CO (stereo not drawn) | > 100 µM (inactive) | > 100 µM (inactive) | > 100 µM (inactive) | > 100 µM (inactive) | > 100 µM (inactive) | > 100 µM (inactive) | > 100 µM (inactive) | > 100 µM (inactive) | > 100 µM (inactive) | > 100 µM (inactive) | > 100 µM (inactive) | > 100 µM (inactive) | – | > 100 µM (inactive) | > 100 µM (inactive) | > 100 µM (inactive) | > 100 µM (inactive) | > 100 µM (inactive) | > 100 µM (inactive) | – |
| O=C1C=Cc2cscc21 | 15.3 µM (inactive) | 31.9 µM (inactive) | 19.6 µM (inactive) | 16.4 µM (inactive) | 31.8 µM (inactive) | 69.8 µM (inactive) | > 100 µM (inactive) | 92.5 µM (inactive) | 26.4 µM (inactive) | 37.9 µM (inactive) | 34.5 µM (inactive) | 35.8 µM (inactive) | > 100 µM (inactive) | 28.8 µM (inactive) | 48.5 µM (inactive) | 71.4 µM (inactive) | – | 14.3 µM (inactive) | 35.5 µM (inactive) | > 100 µM (inactive) |
| Cc1cc(S(=O)(=O)N/C(=C(\C#N)C(=O)c2ccccc2)[n+]2ccc(N(C)C)cc2)c([S-])cc1Cl | 37.2 µM (inactive) | > 100 µM (inactive) | 35.6 µM (inactive) | > 100 µM (inactive) | > 100 µM (inactive) | > 100 µM (inactive) | > 100 µM (inactive) | > 100 µM (inactive) | > 100 µM (inactive) | > 100 µM (inactive) | > 100 µM (inactive) | – | 32.4 µM (inactive) | > 100 µM (inactive) | > 100 µM (inactive) | > 100 µM (inactive) | 64.9 µM (inactive) | 60.1 µM (inactive) | > 100 µM (inactive) | 0.33 µM (active) |
| COc1cc(/C=C/c2ccccn2)cc(OC)c1OC | > 10 µM (inactive) | > 10 µM (inactive) | > 10 µM (inactive) | > 10 µM (inactive) | > 10 µM (inactive) | > 10 µM (inactive) | > 10 µM (inactive) | > 10 µM (inactive) | > 10 µM (inactive) | > 10 µM (inactive) | > 10 µM (inactive) | > 10 µM (inactive) | > 10 µM (inactive) | > 10 µM (inactive) | > 10 µM (inactive) | > 10 µM (inactive) | – | > 10 µM (inactive) | > 10 µM (inactive) | > 10 µM (inactive) |
| NNC(=O)Cn1c2ccc(Br)cc2c2nc3ccccc3nc21 | – | 33.8 µM (inactive) | – | 17.9 µM (inactive) | > 100 µM (inactive) | 47.8 µM (inactive) | – | > 100 µM (inactive) | > 100 µM (inactive) | 43.7 µM (inactive) | 36.6 µM (inactive) | – | 47.1 µM (inactive) | > 100 µM (inactive) | > 100 µM (inactive) | > 100 µM (inactive) | > 100 µM (inactive) | 11.7 µM (inactive) | > 100 µM (inactive) | – |
| NCCNCCCCCCNC(=O)c1cccc2cc3ccccc3nc12 | 2.15 µM (inactive) | 2.06 µM (inactive) | 1.42 µM (inactive) | 1.36 µM (inactive) | 2.34 µM (inactive) | 5.65 µM (inactive) | 0.871 µM (active) | 2.72 µM (inactive) | 1.92 µM (inactive) | 1.64 µM (inactive) | 2.28 µM (inactive) | 1.47 µM (inactive) | 2.43 µM (inactive) | 17.9 µM (inactive) | 3.59 µM (inactive) | 2 µM (inactive) | – | 0.838 µM (active) | 1.59 µM (inactive) | 2.24 µM (inactive) |
| Cc1cc(Cl)ccc1NC(=O)/C(Cl)=C(/Cl)C(=O)O | 19 µM (inactive) | 31.8 µM (inactive) | 15.4 µM (inactive) | 23.1 µM (inactive) | 21.7 µM (inactive) | 22.1 µM (inactive) | > 100 µM (inactive) | 52.8 µM (inactive) | 28.4 µM (inactive) | 19 µM (inactive) | 19.3 µM (inactive) | 19.9 µM (inactive) | – | 29 µM (inactive) | 20.6 µM (inactive) | 31 µM (inactive) | 15.1 µM (inactive) | – | 22.9 µM (inactive) | 22.1 µM (inactive) |
| O=C(Oc1c(Br)cc(Br)cc1C(=O)Oc1ccccc1)C(=O)Oc1c(Br)cc(Br)cc1C(=O)Oc1ccccc1 | 14.4 µM (inactive) | 12.7 µM (inactive) | 14.4 µM (inactive) | 19.6 µM (inactive) | 12.1 µM (inactive) | 28.7 µM (inactive) | > 100 µM (inactive) | 29 µM (inactive) | 34.1 µM (inactive) | 13.1 µM (inactive) | 27.7 µM (inactive) | – | – | 38.9 µM (inactive) | 10.1 µM (inactive) | 24 µM (inactive) | 18.5 µM (inactive) | 14.9 µM (inactive) | 32.7 µM (inactive) | 12 µM (inactive) |
| O=C1NC(c2c(Cl)cccc2Cl)Nc2ccccc21 (stereo not drawn) | 25.4 µM (inactive) | – | 25.9 µM (inactive) | 54.3 µM (inactive) | 30.5 µM (inactive) | 73.3 µM (inactive) | 26.5 µM (inactive) | 54.5 µM (inactive) | 34.8 µM (inactive) | 36.3 µM (inactive) | > 100 µM (inactive) | 47.2 µM (inactive) | 85.7 µM (inactive) | 21.8 µM (inactive) | 14.1 µM (inactive) | 16.4 µM (inactive) | – | 47.6 µM (inactive) | 28.1 µM (inactive) | 25.4 µM (inactive) |
| COc1ccccc1OCC(=N/NC(=O)c1ccncc1)/N=C/c1cccnc1 | > 100 µM (inactive) | > 100 µM (inactive) | > 100 µM (inactive) | > 100 µM (inactive) | > 100 µM (inactive) | > 100 µM (inactive) | > 100 µM (inactive) | > 100 µM (inactive) | > 100 µM (inactive) | > 100 µM (inactive) | > 100 µM (inactive) | > 100 µM (inactive) | > 100 µM (inactive) | > 100 µM (inactive) | > 100 µM (inactive) | > 100 µM (inactive) | – | > 100 µM (inactive) | > 100 µM (inactive) | > 100 µM (inactive) |

Source: ChEMBL document CHEMBL1201862, “PubChem BioAssay data set” (2004)
